How the values were obtained:
[1] = test system: Human adenoid cystic carcinoma TGS112T cells; test: [3H]-thymidine incorporation; format: cell-based
Procedure: TGS112T cells were seeded in 24-well trays and exposed to 10% hormone-depleted FBS-supplemented medium for 2 d, then treated with 0.25% hormone-depleted FBS-supplemented medium prior to starting the experiments. Aliquots of cells were treated with T4, tetrac or nano-tetrac as indicated, as well as 1 μCi [^3H]-thymidine (final concentration, 13 nM) for 24 h. Cells were then washed twice with cold PBS. TCA (5%, 1 mL) was added and the plate was held at 4° C. for 30 min. The precipitate was washed twice with cold ethanol; 2% SDS (1 mL) was added to each well and the TCA-precipitable radioactivity was quantitated in a liquid scintillation counter.
Human adenoid cystic carcinoma TGS112T cells were cultured in medium that contained 0.25% hormone-stripped serum for 2 d and then treated with 10^−7 M tetrac or nano-tetrac for 30 min prior institution of 10^−7 M T4 treatment for 24 h. Nuclear proteins were separated by SDS-PAGE followed by western blot analysis with proliferating-cell nuclear antigen (PCNA) antibody. Thyroid hormone-induced PCNA accumulation was inhibited by tetrac. (See FIG. 6A). […] (See FIG. 6A). Inhibition of thyroid hormone-induced proliferation was confirmed by inhibition by tetrac and nano-tetrac of thyroid hormone-induced accumulation and [^3H]-thymidine incorporation. (See FIG. 6B). […] (See FIG. 6B). […] The effect of nano-tetrac and tetrac on cell proliferation was examined by counting TGS112T cells which were treated daily with 10^−6 M tetrac or 10^−6 M nano-tetrac. […] (See FIG. 6C).

[2] = test system: monkey kidney epithelial CV-1 cells; test: Proliferation of non-malignant cells; format: cell-based, African green monkey; conditions: 10^−6M daily for 7 days
Procedure: FIG. 9 is a series of graphs showing the comparison of nano-tetrac and tetrac on cell proliferation in non-malignant cells. CV-1 cells (FIG. 9A) and 293 T cells (FIG. 9B) were treated daily with 10^−6 M tetrac or nano-tetrac. Cells were harvested at the time points indicated. Total cell numbers taken after each treatment were used as an indicator for tetrac- or nano-tetrac-induced anti-proliferation.
In order to confirm that tetrac and nano-tetrac only suppress cell proliferation in cancer cells, tetrac and nano-tetrac were also examined for potential anti-proliferative effects on immortalized non-malignant cells, using monkey kidney epithelial CV-1 cells and human embryonic kidney 293T cells. The cells were treated daily with either 10^−6M tetrac or 10^−6M nano-tetrac for 7 days, then were harvested, counted and examined microscopically.

MDA-MB cells [3] = test: Apoptosis by flow cytometry (FACS) in perfusion bellows culture; format: cell-based, human; conditions: for induced apoptosis compared to untreated control: day 2
Procedure: MDA-MB cells grown in perfusion bellows cell culture were treated with different concentrations of tetrac (10^−7 M to 10^−5 M) daily. Cells were harvested on the day indicated. Two million cells of each sample were prepared for flow cytometry. Flow cytometry was conducted as described in Example 1, infra.
Cells were harvested from flakes by trypsinization, washed with PBS and were resuspended in 200 μL PBS (1×10^5-1×10^6 cells). To quantify cellular DNA content, cells were permeabilized by fixation with 70% ethanol for 30 min at 4° C. Samples can be stored in 70% ethanol at −20° C. for several weeks prior to propidium iodide (PI) staining and flow cytometric analysis. If cellular DNA quantification was performed on the same day of cell harvest, the cells were washed after permeabilization in PBS and resuspended in 500 μL PBS. Then 2.5 μL RNase (DNase-free) was added to the cell suspension and incubation was carried out at 37° C. for 30 min. The cell suspension was chilled on ice to 4° C. and 50 μL propidium iodide (PI) was added to the cell suspension. Samples were then kept in the dark at room temperature for 30 min, after which they were subjected to flow cytometry. Samples were analyzed on FACSCalibur™ (Becton Dickinson), using CellQuest software to determine DNA content. Fluorescence-activated cell sorting (FACS) analysis was performed using Annexin V-FITC and PI. The relative percentages of cells in G1, S, or G2/M phase were calculated from FL-2 histograms using ModFit LT software.
Cells were harvested for FACS analysis 1-5 d after treatment with 10^−7 to 10^−5 M tetrac. […] (See FIG. 7). By day 2, tetrac, 10^−7M and 10^−6M, induced apoptosis by 2.5-fold as compared to untreated control. Similar results were obtained after 4 d of treatment of tetrac. […] (See FIG. 7).

MDA-MB cells [4] = test: Pro-apoptotic gene expression by RT-PCR; format: cell-based, human; conditions: 10^−6 M
Procedure: MDA-MB cells were treated daily with 10^−6M of tetrac or nano-tetrac in bellows perfusion culture system. Cells were harvested after 3 days of treatment and total RNA was extracted. RT-PCR was conducted as described in Example 1, infra.
Total RNA was isolated as described previously. (See Lin et al., 2008. Carcinogenesis. 29:62-69). First strand complementary DNAs were synthesized from 1 μg of total RNA using oligo dT and AMV Reverse Transcriptase (Promega, Madison, Wis.). First-strand cDNA templates were amplified for GAPDH, c-fos, PIG3, c-Jun, and BAD mRNAs by polymerase chain reaction (PCR), using a hot start (Ampliwax, Perkin Elmer, Foster City, Calif.). Primer sequences were GAPDH [5′-[…]-3′ (forward) (SEQ ID NO: 1) and 5′-[…]-3′ (reverse) (SEQ ID NO:2)], c-fos [5′-[…]-3′(forward) (SEQ ID NO:3) and 5′-CAGTCA-[…]-3′ (reverse) (SEQ ID NO:4)], PIG3 [5′-[…]-[…]-3′(forward) (SEQ ID NO:5) and 5′-[…]-3′ (reverse) (SEQ ID NO:6)], c-jun [5′-[…]-3′ (forward) (SEQ ID NO:7) and 5′-[…]-3′ (reverse) (SEQ ID NO:8)] and BAD [5′-GTT-[…]-3′ (forward) (SEQ ID NO:9) and 5′-[…]-3′ (reverse) (SEQ ID NO:10)]. The PCR cycle was an initial step of 95° C. for 3 min, followed by 94° C. for 1 min, 55° C. for 1 min, 72° C. for 1 min, then 25 cycles and a final cycle of 72° C. for 8 min. […] Photographs were scanned under direct light for quantitation and illustration. […]

SMILES: O=C(O)Cc1cc(I)c(Oc2cc(I)c(O)c(I)c2)c(I)c1 [tetrac, Tetraiodothyroacetic acid]
- reduction of T4-induced thymidine incorporation ([1]; 10^−7 M with 10^−7 M T4, 24 h): 5 fold
- effect of agent alone on thymidine incorporation ([1]; 10^−7 M, 24 h): stimulated thymidine incorporation
- change in cell numbers and morphology vs untreated control [2]: no significant change
- increase of apoptotic cells compared to untreated control cells (MDA-MB cells [3]; 10^−5 M, 1 d): 10 fold
- induced apoptosis compared to untreated control (MDA-MB cells [3]; 10^−6M): 2.5 fold
- induced apoptosis compared to untreated control (MDA-MB cells [3]; 10^−7M): 2.5 fold
- expression of c-fos (MDA-MB cells [4]): increased expression
- expression of c-jun (MDA-MB cells [4]): increased expression

Reference: US9180107B2 (NANOPHARMACEUTICALS LLC, priority 2009, dated 2015)
